Measurements as given in ChEMBL document CHEMBL1142204, “Cathepsin A is the major hydrolase catalyzing the intracellular hydrolysis of the antiretroviral nucleotide phosphonoamidate prodrugs GS-7340 and GS-9131” (Antimicrob Agents Chemother, 2007).
pIC50: −log10 of the molar value.

Columns and labels:
Liver carboxylesterase = target: T1, Liver carboxylesterase (Sus scrofa, UniProt Q29550); test: Inhibition of porcine liver carboxylesterase using [14C]GS-7340 substrate
T1 sequence (Q29550 whole entry): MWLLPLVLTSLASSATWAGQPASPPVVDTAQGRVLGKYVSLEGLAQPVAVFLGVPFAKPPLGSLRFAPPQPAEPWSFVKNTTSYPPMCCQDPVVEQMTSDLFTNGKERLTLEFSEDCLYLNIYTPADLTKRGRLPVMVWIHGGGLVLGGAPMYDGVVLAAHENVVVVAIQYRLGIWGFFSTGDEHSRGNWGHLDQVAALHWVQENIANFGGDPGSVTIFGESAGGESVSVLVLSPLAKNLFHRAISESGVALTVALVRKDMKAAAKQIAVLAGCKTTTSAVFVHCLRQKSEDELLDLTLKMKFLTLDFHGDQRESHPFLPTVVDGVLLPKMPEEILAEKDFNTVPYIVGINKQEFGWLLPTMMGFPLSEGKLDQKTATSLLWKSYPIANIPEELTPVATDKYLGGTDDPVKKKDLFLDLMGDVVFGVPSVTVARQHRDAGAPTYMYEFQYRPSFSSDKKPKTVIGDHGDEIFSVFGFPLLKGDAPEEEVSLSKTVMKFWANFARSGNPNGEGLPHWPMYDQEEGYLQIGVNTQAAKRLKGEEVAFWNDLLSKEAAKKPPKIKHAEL

[1] = Inhibition of purified prodrug hydrolase using [14C]GS-7340 substrate; design: species or system Homo sapiens
[2] = Inhibition of crude human PBMC extract prodrug hydrolase using [14C]GS-7340 substrate
[3] = target: T2, Lysosomal protective protein (Homo sapiens, UniProt P10619); test: Inhibition of recombinant CatA using [14C]GS-7340 substrate
T2 sequence (P10619 whole entry): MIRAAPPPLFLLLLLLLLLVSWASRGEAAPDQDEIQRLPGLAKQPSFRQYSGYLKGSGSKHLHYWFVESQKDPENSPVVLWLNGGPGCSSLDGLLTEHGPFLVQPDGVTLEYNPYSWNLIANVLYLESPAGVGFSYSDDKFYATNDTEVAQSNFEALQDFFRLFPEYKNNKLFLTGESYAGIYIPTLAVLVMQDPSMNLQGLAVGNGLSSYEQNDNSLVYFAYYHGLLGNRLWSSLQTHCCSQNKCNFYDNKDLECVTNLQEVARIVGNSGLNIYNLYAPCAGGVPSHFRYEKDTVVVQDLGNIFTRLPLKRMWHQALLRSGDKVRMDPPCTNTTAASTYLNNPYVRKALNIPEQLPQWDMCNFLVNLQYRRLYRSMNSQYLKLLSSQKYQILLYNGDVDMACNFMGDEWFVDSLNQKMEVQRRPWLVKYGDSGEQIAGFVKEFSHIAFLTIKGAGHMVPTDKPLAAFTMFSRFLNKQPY

Neutrophil elastase = target: T3, Neutrophil elastase (Homo sapiens, UniProt P08246); test: Inhibition of human leukocyte elastase using [14C]GS7340 substrate
T3 sequence (P08246 whole entry): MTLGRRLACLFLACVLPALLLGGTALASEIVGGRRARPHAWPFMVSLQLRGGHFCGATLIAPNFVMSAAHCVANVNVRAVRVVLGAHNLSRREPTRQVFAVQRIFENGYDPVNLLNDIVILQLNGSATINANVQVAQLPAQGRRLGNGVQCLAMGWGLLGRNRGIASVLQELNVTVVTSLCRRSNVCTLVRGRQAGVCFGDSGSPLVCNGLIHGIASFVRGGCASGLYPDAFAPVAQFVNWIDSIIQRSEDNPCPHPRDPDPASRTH

SMILES | pIC50 (Liver carboxylesterase) | pIC50 [1] | pIC50 [2] | pIC50 [3] | pIC50 (Neutrophil elastase)
O=c1oc(Cl)c(Cl)c2ccccc12 | < 3.60 | 6.30 | 5.30 | 6.22 | 
CC(C)C[C@H](NC(=O)[C@H]1O[C@@H]1C(=O)O)C(=O)NCCCCN=C(N)N [E-64] | < 3.52 | < 3.52 | < 3.52 | < 3.52 | < 3.52
